The test system of one data set is HCC1937. Description: Breast cancer cell viability, 48 hours, MTA assay. The class given is cell-based. The note with it: Homo sapiens, HCC1937, 48 h. The source says:
(§1) Cell viabilities were used to calculate “Fraction Affected” (Fa) and “Combination Index” (CI) values using the Chou-Talalay method. Any combination with a CI value<0.70 at a Fa value between 0.25 and 0.75 was defined as positive synergy.

Data set [1] relates to MDA-MB-453. Description: Breast cancer cell viability, 48 hours, MTA assay. The note with it: Homo sapiens, MDA-MB-453, 48 h. The format is cell-based.
Source text: as §1

The next data set concerns HCC38. Description: Breast cancer cell viability, 48 hours, MTA assay. The format is cell-based. To be noted: Homo sapiens, HCC38, 48 h.
Source text: as §1

In the next data set the test system is MDA-MB-231. Description: Breast cancer cell viability, 48 hours, MTA assay. The class given is cell-based. The note with it: Homo sapiens, MDA-MB-231, 48 h.
Source text: as §1

The next data set deals with MCF-7. Description: Breast cancer cell viability, 48 hours, MTA assay. The format is cell-based. The note with it: Homo sapiens, MCF7, 48 h.
Source text: as §1

A further data set relates to Bcap-37. Description: Breast cancer cell viability, 48 hours, MTA assay. The class given is cell-based. To be noted: Homo sapiens, Bcap37, 48 h.
Source text: as §1

The test system of a further data set is MDA-MB-361. Description: Breast cancer cell viability, 48 hours, MTA assay. The format is cell-based. The note with it: Homo sapiens, MDA-MB-361, 48 h.
Source text: as §1

For another data set, the system named is SK-BR-3. Description: Breast cancer cell viability, 48 hours, MTA assay. The class given is cell-based. The note with it: Homo sapiens, SK-BR-3, 48 h.
Source text: as §1

The subject of a further data set is T-47D*. Description: Breast cancer cell viability, 48 hours, MTA assay. The note with it: Homo sapiens, T47D, 48 h. The class given is cell-based.
Source text: as §1

In another data set the test system is BT474. Description: Breast cancer cell viability, 48 hours, MTA assay. The class given is cell-based. The note with it: Homo sapiens, BT-474, 48 h.
Source text: as §1

Another data set deals with MDA-MB-468. Description: Breast cancer cell viability, 48 hours, MTA assay. The format is cell-based. The note with it: Homo sapiens, MDA-MB-468, 48 h.
Source text: as §1

The test system of the next data set is ZR-75-1. Description: Breast cancer cell viability, 48 hours, MTA assay. To be noted: Homo sapiens, ZR-75-1, 48 h. The format is cell-based.
Source text: as §1

The next data set concerns MDA-MB-436. Description: Breast cancer cell viability, 48 hours, MTA assay. The class given is cell-based. To be noted: Homo sapiens, MDA-MB-436, 48 h.
Source text: as §1

Another data set has as its system BT-549. Description: Breast cancer cell viability, 48 hours, MTA assay. The format is cell-based. The note with it: Homo sapiens, BT-549, 48 h.
Source text: as §1

The test system of the next data set is Hs578T. Description: Breast cancer cell viability, 48 hours, MTA assay. To be noted: Homo sapiens, Hs-578T, 48 h. The class given is cell-based.
Source text: as §1

A further data set relates to MX-1. Description: Breast cancer cell viability, 48 hours, MTA assay. To be noted: Homo sapiens, MX1, 48 h. The class given is cell-based.
Source text: as §1

For data set [2], the system named is Her2 protein, p-EGFR, p-AKT in MDA-MB-453. Description: Her2 protein, p-EGFR and p-AKT levels after treatment. To be noted: Her2+ breast cancer cell line MDA-MB-453. The class given is cell-based.
The subject of data set [3] is MDA-MB-453. Description: Potentiation effect of HDAC6 inhibitors on Her2+ breast cancer cell lines. The note with it: for cytotoxicity of HDAC6 inhibitor alone: MDA-MB-453, at the tested concentrations. The class given is cell-based. The protocol:
(§2) The IC50 (Inhibitory Concentration at which 50% of the cells are viable) values of these 4 anti-breast cancer compounds were calculated in the presence of increasing concentrations of a HDAC6 inhibitor.

In the next data set the test system is BT-474. Described as above. To be noted: for cytotoxicity of HDAC6 inhibitor alone: BT-474, at the tested concentrations. The class given is cell-based. As for the experimental part: as §2
The test system of data set [4] is panel of nearly 100 human tumor cell lines. Description: Anti-tumor activity in a panel of nearly 100 human tumor cell lines. The class given is cell-based. The note with it: Her2+ breast cancer cells versus other major cancer types.
A short description of data set [5]: Potentiation of PI3K inhibitor GDC-0941 by HDAC6 selective inhibitors (Example 7). The note with it: non-cytotoxic concentrations of the HDAC6 inhibitor. The class given is cell-based.
The test system of data set [6] is A549 and MDA-MB-231 cancer cells. Description: Migration assay. The format is cell-based. The note with it: in the presence or absence of epidermal growth factor (EGF). The protocol: Many cultured cancer cells are able to migrate across a membrane and this activity indicates the metastatic potential of the cancer cells. The migration of two cancer cells, A549 and MDA-MB-231, were compared in the presence or absence of a HDAC6 inhibitor. The cancer cells were seeded and grown on a membrane surface, and the cell numbers on the other side of the membrane were counted under a microscope after 12 hours. […] In the study, an HDAC inhibitor was added to the cells either 2 hours before or when the migration was measured. The effect of HDAC6 inhibitor on Epidermal Growth Factor (EGF) stimulated cancer cell migration using 20 ng/ml of EGF in the assay was investigated.
The protocol for the Migration Assay was as follows. The compounds were prepared in DMSO at 400× stock of the final required concentrations.
200 μl of warm basal RPMI1640 medium was added to the interior of the inserts, allowed to rehydrate for 2 hours in a humidified tissue culture incubator at 37° C., 5% CO2 atmosphere. […] The number of migrated cells were counted under a microscope in five fields at 100× magnification. The viable cells were seeded in the 96 well plate with the same treatment as in the migration assay were measured using CTG (Cell Titer Glow).

For a further data set, the target named is T1, HDAC6 (Homo sapiens, UniProt Q9UBN7).
T1 construct: purchased BPS Biosciences
T1 sequence (Q9UBN7 whole entry): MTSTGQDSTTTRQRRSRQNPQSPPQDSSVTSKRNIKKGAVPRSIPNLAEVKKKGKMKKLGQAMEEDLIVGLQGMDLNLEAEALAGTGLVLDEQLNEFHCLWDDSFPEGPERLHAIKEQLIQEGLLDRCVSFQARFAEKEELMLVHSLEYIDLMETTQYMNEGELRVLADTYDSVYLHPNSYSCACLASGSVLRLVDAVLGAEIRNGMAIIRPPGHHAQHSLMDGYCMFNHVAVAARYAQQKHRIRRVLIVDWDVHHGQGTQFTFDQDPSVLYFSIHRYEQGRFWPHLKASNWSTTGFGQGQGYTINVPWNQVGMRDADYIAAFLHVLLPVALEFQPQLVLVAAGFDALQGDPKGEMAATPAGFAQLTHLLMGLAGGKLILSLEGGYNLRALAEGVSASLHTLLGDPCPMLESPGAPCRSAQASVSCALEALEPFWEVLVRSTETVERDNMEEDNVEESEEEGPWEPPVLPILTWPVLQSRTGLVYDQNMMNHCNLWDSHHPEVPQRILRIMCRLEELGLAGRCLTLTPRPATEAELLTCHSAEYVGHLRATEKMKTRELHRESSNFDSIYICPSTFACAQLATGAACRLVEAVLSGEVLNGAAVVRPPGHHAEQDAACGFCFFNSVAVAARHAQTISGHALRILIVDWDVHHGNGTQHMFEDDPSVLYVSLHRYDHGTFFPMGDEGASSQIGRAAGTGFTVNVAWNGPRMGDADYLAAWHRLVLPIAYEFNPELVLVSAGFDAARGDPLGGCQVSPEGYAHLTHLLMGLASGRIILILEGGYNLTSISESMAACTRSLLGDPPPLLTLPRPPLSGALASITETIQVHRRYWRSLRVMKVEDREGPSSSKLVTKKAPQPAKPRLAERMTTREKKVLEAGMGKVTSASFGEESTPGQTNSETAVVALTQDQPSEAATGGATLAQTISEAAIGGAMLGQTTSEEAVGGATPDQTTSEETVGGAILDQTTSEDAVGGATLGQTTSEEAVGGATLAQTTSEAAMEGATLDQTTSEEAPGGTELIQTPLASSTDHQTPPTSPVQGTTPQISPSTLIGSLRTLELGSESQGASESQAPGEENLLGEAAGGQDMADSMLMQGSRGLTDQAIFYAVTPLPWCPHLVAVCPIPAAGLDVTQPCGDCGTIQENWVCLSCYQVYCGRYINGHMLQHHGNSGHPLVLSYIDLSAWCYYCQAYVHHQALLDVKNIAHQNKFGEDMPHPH
Description: HDAC enzyme assays. The class given is biochemical. As for the experimental part:
Compounds for testing were diluted in DMSO to 50 fold the final concentration and a ten point three fold dilution series was made. […] The final enzyme concentrations used in these assays were 3.3 ng/ml (HDAC1), 0.2 ng/ml (HDAC2), 0.08 ng/ml (HDAC3) and 2 ng/ml (HDAC6). […] The IC50 was determined using Graph Pad Prism by a four parameter curve fit.

The structures appear in SMILES notation.

The term IC50 denotes the concentration that gives 50% inhibition. For `O=C(CCCCCCNC(=O)c1cnc(N(c2ccccc2)c2ccccc2)nc1)NO` [Compound A, 2-(diphenylamino)-N-(7-(hydroxyamino)-7-oxoheptyl) pyrimidine-5-carboxamide], the IC50 with HCC1937 came out at 11.2 µM; with MDA-MB-453 [1], 1.25 µM; in the data set with HCC38, 7.76 µM; in the data set with MDA-MB-231, 7.49 µM; in the data set with MCF-7 it was 8.95 µM; in the data set with Bcap-37, 7.66 µM. The IC50 was found to be 4.51 µM with MDA-MB-361; 1.94 µM in the data set on SK-BR-3; 5 µM in the data set on T-47D*; 2.32 µM in the data set with BT474; 14.9 µM in the data set on MDA-MB-468; 3.57 µM in the data set with ZR-75-1. In addition, the IC50 in the data set with MDA-MB-436 stood at 25.7 µM; in the data set on BT-549, 8.97 µM; in the data set with Hs578T, 5.57 µM; with MX-1 it was 6.38 µM. Moreover, the “Her2 protein, p-EGFR and p-AKT levels” value in data set [2] was “decrease of Her2 protein, p-EGFR, and p-AKT”. In addition, the “cytotoxicity of HDAC6 inhibitor alone” value with MDA-MB-453 [3] and with BT-474 was “not cytotoxic” in each case. Besides, the “sensitivity of Her2+ breast cancer cells within the panel” value in data set [4] is recorded as “among the most sensitive cells”. Besides, in data set [5], the “potentiation of GDC-0941 (decrease in the IC50 value)” value is listed as “GDC-0941 becomes more potent”.

On to `O=C(NO)c1cnc(NC2(c3cccc(F)c3)CCCCC2)nc1` [Compound C, 2-((1-(3-fluorophenyl)cyclohexyl)amino)-N-hydroxypyrimidine-5-carboxamide], for which the cancer cell migration result in [6] is “blocked cancer cell migration”. Besides, the “potency as HDAC6 selective inhibitor” value on HDAC6 is reported as “low nM potency”. Further, the “cytotoxicity of HDAC6 inhibitor alone” value in the data set on MDA-MB-453 [3] and with BT-474 was “not cytotoxic” each time. The “sensitization to lapatinib and PI3K inhibitors” value with MDA-MB-453 [3] (MDA-MB-453, lapatinib, IPI-145, GDC-0941 and CAL-101) is given as “able to sensitize”; with BT-474 (BT-474, lapatinib, IPI-145, GDC-0941 and CAL-101) it was “able to sensitize”. The “potentiation of GDC-0941 (decrease in the IC50 value)” value in data set [5] is listed as “GDC-0941 becomes more potent”.

(Values after patent US10722512B2, “Combinations of histone deacetylase inhibitors and either HER2 inhibitors or PI3K inhibitors” (Acetylon Pharmaceuticals, Inc., priority 2013, dated 2020).)
